The source of these data is PMC6476888, “Design and synthesis of anticancer 1-hydroxynaphthalene-2-carboxanilides with a p53 independent mechanism of action” (Scientific Reports, 2019).

The subject of experiment [1] is p53/p21 system in the HCT116 cells. Briefly: Western blot of p53/p21 activation. In kind it is cell-based, human. Particulars: wild-type HCT116, 12 and 24 h. As for the experimental part:
Further exploration of the cell death model was performed by a western blot analysis of protein activation in response to incubation with the tested compound (Figs 6, 7). […] The proapoptotic activation of the p53/p21 system was noticeable after the first 12 hours and then became stronger after 24 h. This effect was not observed in the case of the p53 null cells, which were unable to synthesize this protein.
The HCT116 cells were seeded in 3-cm Petri dishes (Nunc) at a density of 0.5·10^6 cells/well and incubated overnight. […] The cells were harvested by trypsinization and washed with cold PBS. Next, the cells were centrifuged and suspended in an RIPA buffer (Thermo-Fisher Scientific) containing Halt Protease Inhibitor Cocktail (Thermo-Fisher Scientific), Halt Phosphatase Inhibitor Cocktail (Thermo-Fisher Scientific) along with 0.5 M EDTA and lysed for 20 min on ice. Then, the lysates were sonicated, centrifuged at 10,000 rpm for 10 min at 4 °C and the supernatants were collected for further analysis. The protein concentration was determined using a Micro BCA™ Protein Assay Kit (Thermo-Fisher Scientific, Waltham, MA, USA c) according to the manufacturer’s instructions. Equal amounts of the proteins (20 μg) were electrophoresed on SDS-Page gels and transferred onto nitrocellulose membranes. The membranes were blocked in 5% non-fat milk prepared in PBS containing 0.1% Tween-20 (TPBS) for 1 h. After blocking, the membranes were incubated with specific primary antibodies: p21^Waf1/Cip1, p53, cytochrome c, caspase-8, caspase-9, AIF, PARP, GAPDH and β-Actin overnight at 4 °C, and then washed and incubated with horseradish peroxidase (HRP)-conjugated secondary antibodies for 1 h at room temperature. All of the antibodies were purchased from CellSignaling (Danvers, MA, USA) and were diluted 1:1000 in 5% milk in TPBS. Finally, the membranes were washed and incubated with a SuperSignal™ West Pico Chemiluminescent Substrate (Thermo-Fisher Scientific). The chemiluminescence signals were captured using a ChemiDoc™ XRS+ System (Bio-Rad Laboratories, Hercules, CA, USA). The experiments were performed at least three times. Densitometric analysis was performed using ImageJ 1.41 software (Wayne Rasband, National Institutes of Health, USA).

The next experiment relates to NHDF. Kind of experiment: Cytotoxicity (MTS, 72 h) against normal human fibroblasts. Particulars: Homo sapiens, NHDF; MTS, 72 h incubation. It is filed as cell-based.
In a further experiment the test system is CT-DNA. Briefly: Spectrophotometric DNA intercalation assay. In kind it is binding, calf. An excerpt: The fused aromatic rings of the naphthalene moiety and halogen substituents in aniline may guarantee good intercalating properties[71],[72]. On the other hand, the intercalation of DNA may explain the high activity against both the wild-type and p53 mutants as was reported for a series of styrylquinolines. Binding to DNA causes the bases to mismatch or cleave, which results in the arrest of the cell cycle and apoptosis. The effectiveness of the p53 system is one of the most important factors in the response to therapy. We tested the intercalating properties of the selected compounds in a spectrophotometric assay on calf-thymus DNA. The absorption spectra of the tested compounds in the absence and presence of CT-DNA are presented in Figure S1 Supplementary Information and the spectral properties with doxorubicine and CP-31398 are summarized in Table 2.
For the DNA binding studies, Calf-thymus DNA (CT-DNA) was purchased from Sigma- Aldrich. The lyophilized CT-DNA was dissolved in 10 mM Tris-HCl, pH 7.9, mixed gently and left overnight at 4 °C. The purity of the CT-DNA solution was determined by measuring the ratio of UV absorbance at 260 and 280 nm. […] Then, the concentration of CT-DNA was determined from the absorbance at 260 nm using an extinction coefficient of 6600 M^−1cm^−1. The tested compounds including DOX and CP-31398 were dissolved to a concentration of 8.35 mM in DMSO, which was then used as the stock solution for preparing the various concentrations (25, 12.5, 6 and 3 µM) in 1 mL in 10 mM of Tris-HCl (pH 7.9). Afterwards, 18 µM CT-DNA was added to the prepared solutions, which were incubated for 1.5 h at 37 °C with occasional vortexing. The absorption spectra were measured using a Hitachi U-2900 spectrophotometer in the range of 200–500 nm. All absorption spectra were imported into OriginPro 8.0 and compared.

The subject of another experiment is HCT116^+/+. Briefly: Antiproliferative assay (MTS, 72 h) on HCT116 wild type. It is filed as cell-based, human. The settings on record: Homo sapiens, HCT-116; MTS, 72 h incubation; read-out: Activity IC50 HCT116^+/+.
For the next experiment, the system named is HCT116^−/−. Kind of experiment: Antiproliferative assay (MTS, 72 h) on HCT116 with p53 deletion. The settings on record: Homo sapiens, HCT-116; MTS, 72 h incubation. In kind it is cell-based, human.
Where [2] appears, read: bound to CT-DNA, for CP-31398 first value (312 nm band).

`COc1cccc2c1C(=O)c1c(O)c3c(c(O)c1C2=O)C[C@@](O)(C(=O)CO)C[C@@H]3O[C@H]1C[C@H](N)[C@H](O)[C@H](C)O1` [DOX, doxorubicin, reference compound]: in experiment [1], the p21 protein amount entry is on record as “dramatic increase” and the “p53 protein amount / activation” value is “dramatic increase”. The IC50 with NHDF came to 3380 ± 1290 nM. Also, in the experiment on CT-DNA (bound to CT-DNA (18 µM), 1.5 h 37 °C, Tris-HCl pH 7.9), the Changes in absorbance entry was “hypochromism”. In addition, in the experiment with CT-DNA (setting [2]), the “% hypochromism” value was found to be 34.2% and the Δε was 3235.6 M⁻¹ cm⁻¹. In the experiment with CT-DNA (wavelengths of maximum absorption, individual vs DNA-bound compound), the red shift is listed as 10 nm. Moreover, the IC50 in the experiment with HCT116^+/+ was determined as 340 ± 40 nM. In addition, in the experiment on HCT116^−/−, the IC50 stood at 380 ± 30 nM.
